Reference: patent US9040727B2, “Histone deacetylase inhibitor of benzamides and use thereof” (Shanghai Institute of Pharmaceutical Industry, priority 2011, dated 2015)
Where two headings read alike, the source gives them in different places.

Assays:
[1] = molecular target: hERG potassium channel (Homo sapiens (Human), UniProt Q12809); assay: Effects on hERG potassium channel; type: cell-based; settings: for inhibition at 10 µM: human, hERG potassium current, read-out: Maximum inhibition percentage at 10 μM; for IC50: read-out: Half inhibition concentration for the effect on hERG potassium current IC50
hERG potassium channel, sequence (Q12809 whole entry): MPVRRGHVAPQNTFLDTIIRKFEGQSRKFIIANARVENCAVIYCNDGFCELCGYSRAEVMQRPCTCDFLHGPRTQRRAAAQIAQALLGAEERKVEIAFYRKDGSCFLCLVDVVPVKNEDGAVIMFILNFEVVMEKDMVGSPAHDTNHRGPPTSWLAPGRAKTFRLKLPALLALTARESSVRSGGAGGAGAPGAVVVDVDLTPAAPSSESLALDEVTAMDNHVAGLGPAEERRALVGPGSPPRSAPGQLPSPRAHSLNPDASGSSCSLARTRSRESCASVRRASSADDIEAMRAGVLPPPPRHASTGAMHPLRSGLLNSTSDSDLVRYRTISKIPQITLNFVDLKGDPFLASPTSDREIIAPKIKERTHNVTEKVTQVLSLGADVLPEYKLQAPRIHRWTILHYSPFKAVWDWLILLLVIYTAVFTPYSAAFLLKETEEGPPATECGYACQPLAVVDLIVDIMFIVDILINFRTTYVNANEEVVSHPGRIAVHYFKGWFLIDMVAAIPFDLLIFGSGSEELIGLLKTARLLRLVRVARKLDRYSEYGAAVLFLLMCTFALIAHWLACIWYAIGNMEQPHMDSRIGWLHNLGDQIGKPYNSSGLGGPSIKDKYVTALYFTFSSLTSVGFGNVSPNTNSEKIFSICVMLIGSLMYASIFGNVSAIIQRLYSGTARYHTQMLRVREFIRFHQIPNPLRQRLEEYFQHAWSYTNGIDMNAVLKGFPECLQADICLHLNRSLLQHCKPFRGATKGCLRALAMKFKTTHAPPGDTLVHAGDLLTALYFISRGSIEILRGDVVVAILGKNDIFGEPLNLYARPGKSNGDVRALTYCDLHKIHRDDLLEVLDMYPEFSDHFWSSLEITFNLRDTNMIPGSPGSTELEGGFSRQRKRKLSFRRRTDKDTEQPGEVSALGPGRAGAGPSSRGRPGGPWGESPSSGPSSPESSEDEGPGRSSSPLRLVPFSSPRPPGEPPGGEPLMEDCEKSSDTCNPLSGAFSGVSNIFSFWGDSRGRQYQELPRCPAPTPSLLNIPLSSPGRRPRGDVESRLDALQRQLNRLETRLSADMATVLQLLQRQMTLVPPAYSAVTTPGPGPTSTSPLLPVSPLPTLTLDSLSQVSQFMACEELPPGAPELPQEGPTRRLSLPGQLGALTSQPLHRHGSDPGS

[2] = Preliminary pharmacokinetic experiment; settings: in vivo, rat
[3] = tested on: Colo320 human rectal cancer cell line; assay: In vitro anti-proliferative effect, CCK-8 method; type: cell-based
Method: (§1) The inhibitory activities of the compounds towards Hut78 T lymphocytic leukemia cells, Jurkat E6-1 human T-cell lymphoma, A549 human lung cancer cells, K562 human chronic myelogenous leukemia cells, Hep3B2.1-7 human liver cancer cells, MDA-MB-435s human breast cancer cells, Colo320 human rectal cancer cell line, and PC-3 human prostate cancer were determined. The inhibition percentages as represented by IC50 values were obtained through CCK-8 method.

[4] = tested on: K562 human chronic myelogenous leukemia cells; assay: In vitro anti-proliferative effect, CCK-8 method; type: cell-based
Method: as §1

[5] = tested on: Hep3B2.1-7 human liver cancer cells; assay: In vitro anti-proliferative effect, CCK-8 method; type: cell-based; settings: Hep3B
Method: as §1

[6] = tested on: A549 human lung cancer cells; assay: In vitro anti-proliferative effect, CCK-8 method; type: cell-based
Method: as §1

[7] = tested on: Hut78 T lymphocytic leukemia cells; assay: In vitro anti-proliferative effect, CCK-8 method; type: cell-based
Method: as §1

[8] = tested on: Jurkat E6-1 human T-cell lymphoma; assay: In vitro anti-proliferative effect, CCK-8 method; type: cell-based
Method: as §1

[9] = tested on: PC-3 human prostate cancer; assay: In vitro anti-proliferative effect, CCK-8 method; type: cell-based
Method: as §1

[10] = molecular target: HDAC1 (Homo sapiens (Human), UniProt Q13547); assay: In vitro inhibitory activity towards HDAC1 (HDAC Inhibitor Drug Screening Kit); type: biochemical; settings: for inhibitory activity against HDAC1 compared with MS-275 (by IC50): comparison with MS-275; for inhibition at 1 µM: compound at 1 μM; for inhibition at 10 µM: compound at 10 μM
HDAC1, sequence (Q13547 whole entry): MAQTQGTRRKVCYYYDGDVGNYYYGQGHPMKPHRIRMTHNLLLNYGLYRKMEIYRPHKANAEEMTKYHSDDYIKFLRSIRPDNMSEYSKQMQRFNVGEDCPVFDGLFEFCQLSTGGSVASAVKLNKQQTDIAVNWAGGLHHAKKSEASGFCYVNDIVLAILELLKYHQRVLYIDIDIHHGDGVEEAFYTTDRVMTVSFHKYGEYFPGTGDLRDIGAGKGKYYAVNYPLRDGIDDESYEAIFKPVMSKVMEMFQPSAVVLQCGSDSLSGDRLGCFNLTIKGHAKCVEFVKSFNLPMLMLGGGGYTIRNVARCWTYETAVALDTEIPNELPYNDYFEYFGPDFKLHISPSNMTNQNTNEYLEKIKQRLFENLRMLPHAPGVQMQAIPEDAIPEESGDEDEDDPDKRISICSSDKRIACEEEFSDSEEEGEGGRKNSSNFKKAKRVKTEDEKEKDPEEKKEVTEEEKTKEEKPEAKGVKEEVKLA
Method: (1) The compounds to be tested were each individually prepared as 10 μM and 1 μM solutions and their inhibitory activities towards HDAC1 at these concentrations were tested.
(§2) Each dilution sample was placed in two wells and the enzyme inhibition IC50 of the compound was tested.

[11] = tested on: multiple strains of tumor cells; assay: In vitro inhibition of proliferation of tumor cell strains (overall comparison); type: cell-based; settings: comparison with MS-275
Method: as §1

[12] = tested on: HDACs; assay: In vitro inhibition of HDACs (HDAC Inhibitor Drug Screening Kit); type: biochemical; settings: for inhibitory activity on HDACs compared with MS-275 (by IC50): comparison with MS-275
Method: The test was conducted according to the instructions in the HDAC Inhibitor Drug Screening Kit (Biovision/Catalog #50051, BPS).
as §2

[13] = tested on: MDA-MB-435s human breast cancer cells; assay: In vitro anti-proliferative effect, CCK-8 method; type: cell-based
Method: as §1

[14] = iv, 2 mg/kg, i.v., read-out: Intravenous half-life (converted)
[15] = oral, read-out: Oral half-life (converted)

Compound	IC50 ([3]; Homo sapiens, COLO 320)	IC50 [4]	IC50 ([5]; Homo sapiens)	IC50 ([6]; Homo sapiens)	IC50 ([7]; Homo sapiens, HuT78)	IC50 ([8]; Homo sapiens)	IC50 ([9]; Homo sapiens)	inhibitory activity against HDAC1 compared with MS-275 (by IC50) [10]	inhibition at 1 µM [10]	inhibition at 10 µM [10]	inhibition rate for tumor cells compared with MS-275 [11]	IC50 [12]	IC50 [10]	other results
Nc1ccccc1NC(=O)c1ccc(CNC(=O)c2cc3ccccc3[nH]2)cc1 [Compound V-5]	2450 nM	1310 nM	3460 nM	2640 nM	19.4 nM	179 nM	242 nM	better inhibitory activities against HDAC1 as compared with MS-275	59.6%	81.1%	–	–	–	inhibition at 10 µM [1]: 11.5 ± 0.8%; IC50 [1]: > 10000 nM; half-life [2, 14]: 1.27 h; bioavailability ([2]; oral): 7.84%; half-life [2, 15]: 3.7 h
Nc1cnccc1NC(=O)c1ccc(CNC(=O)c2cc3ccccc3[nH]2)cc1 [Compound V-6]	3130 nM	2090 nM	3070 nM	1250 nM	8.8 nM	128 nM	370 nM	better inhibitory activities against HDAC1 as compared with MS-275	68.5%	74.5%	higher inhibition rate for multiple strains of tumor cells as compared with MS-275	7790 nM	344 nM	–
Nc1ccc(F)cc1NC(=O)c1ccc(CNC(=O)c2cc3ccccc3o2)cc1 [Compound V-9]	–	17100 nM	15900 nM	21200 nM	3460 nM	2130 nM	2240 nM	better inhibitory activities against HDAC1 as compared with MS-275	37.9%	69.1%	–	–	–	inhibition at 10 µM [1]: 19.9 ± 6.7%; IC50 [1]: > 10000 nM; half-life [2, 14]: 0.95 h; bioavailability ([2]; oral): 28.8%; half-life [2, 15]: 6.37 h; IC50 ([13]; Homo sapiens): 14800 nM
Nc1ccc(-c2ccco2)cc1NC(=O)c1ccc(CNC(=O)c2nc3ccccc3[nH]2)cc1 [Compound V-14]	–	437 nM	1520 nM	3140 nM	356 nM	458 nM	–	better inhibitory activities against HDAC1 as compared with MS-275	74.8%	87.2%	–	–	–	–
Nc1ccccc1NC(=O)c1ccc(CNC(=O)c2cccc3ccccc23)cc1 [Compound V-15]	9340 nM	2880 nM	2760 nM	–	2780 nM	1370 nM	2630 nM	better inhibitory activities against HDAC1 as compared with MS-275	29.8%	67.5%	–	–	–	inhibitory activity on HDACs compared with MS-275 (by IC50) [12]: better inhibitory activities than MS-275
Nc1cnccc1NC(=O)c1ccc(CNC(=O)c2cccc3ccccc23)cc1 [Compound V-16]	86000 nM	6080 nM	3360 nM	–	1790 nM	–	–	better inhibitory activities against HDAC1 as compared with MS-275	62.5%	85.1%	–	3110 nM	276 nM	inhibitory activity on HDACs compared with MS-275 (by IC50) [12]: better inhibitory activities than MS-275
Cc1ccc2[nH]c(C(=O)NCc3ccc(C(=O)Nc4ccccc4N)cc3)cc2c1 [Compound V-19]	–	1910 nM	10200 nM	–	1190 nM	–	191 nM	better inhibitory activities against HDAC1 as compared with MS-275	73.1%	84%	higher inhibition rate for multiple strains of tumor cells as compared with MS-275	1140 nM	414 nM	inhibitory activity on HDACs compared with MS-275 (by IC50) [12]: better inhibitory activities than MS-275
CC(=O)Nc1ccc2[nH]c(C(=O)NCc3ccc(C(=O)Nc4ccccc4N)cc3)cc2c1 [Compound V-25]	–	–	–	295 nM	877 nM	–	69 nM	better inhibitory activities against HDAC1 as compared with MS-275	53.9%	76.2%	higher inhibition rate for multiple strains of tumor cells as compared with MS-275	1020 nM	301 nM	–
CC(=O)c1ccc2[nH]c(C(=O)NCc3ccc(C(=O)Nc4ccccc4N)cc3)cc2c1 [Compound V-26]	88400 nM	19900 nM	52200 nM	29900 nM	231 nM	12400 nM	12200 nM	better inhibitory activities against HDAC1 as compared with MS-275	59.3%	70.8%	–	1370 nM	509 nM	–
Nc1ccc(F)cc1NC(=O)c1ccc(CNC(=O)c2cc3ccccc3s2)cc1 [Compound V-27]	27000 nM	2810 nM	16000 nM	5090 nM	55.8 nM	1390 nM	3570 nM	better inhibitory activities against HDAC1 as compared with MS-275	47.6%	80.2%	higher inhibition rate for multiple strains of tumor cells as compared with MS-275	1220 nM	276 nM	–
Nc1ccccc1NC(=O)c1ccc(CNC(=O)OCc2cccnc2)cc1 [MS-275, reference compound]	–	–	–	–	–	–	–	–	–	–	–	3520 nM	–	IC50 [3]: 522 nM; IC50 [5]: 6820 nM; IC50 [13]: 2710 nM; IC50 [6]: 2280 nM; IC50 ([7]; Hut78): 528 nM; IC50 [8]: 561 nM; IC50 [9]: 502 nM
